{
  "source": "patent US20100021954A1",
  "about": "“High capacity nanoparticulate immobilization surface” (priority 2008, published 2010)",
  "biological_target": "T1, streptavidin (Streptomyces avidinii, UniProt P22629)",
  "T1 construct": "purchased Sigma-Aldrich S4762",
  "T1 sequence (P22629 25-183)": "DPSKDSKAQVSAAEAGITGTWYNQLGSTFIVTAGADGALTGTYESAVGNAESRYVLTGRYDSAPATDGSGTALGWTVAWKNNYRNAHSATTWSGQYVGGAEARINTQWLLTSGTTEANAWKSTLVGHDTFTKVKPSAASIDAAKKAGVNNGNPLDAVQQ",
  "assay": "fl-biotin binding on SA previously immobilized on a PGL coated Epic plate",
  "conditions": "SA immobilized at 1.5 micrograms/mL with KH2PO4 on PGL Epic plate (PGL formulation of Example 4A)",
  "method": "Materials: Fluorescein-Biotin from Sigma-Aldrich ref. B943 1; 0.01 M PBS (phosphate buffer); 0.0027 M potassium chloride; and 0.137 M sodium chloride pH 7.4; and dimethylsulfoxide (DMSO).\nPreparation of 800 nM fl-biotin solution: 16 microliters of 500 μM fl-biotin solution in DMSO were added to 10 mL of PBS and mixed.\nPreparation of PBS/DMSO solution: 16 microliters of DMSO were added to […] of PBS.\nEach well of the Epic® plate from Examples 7A, 7B, 9, and 10 was rinsed three (3) times with water using an automatic pipettor. Then 75 microliters of the PBS/DMSO solution were added to each well and the alignment of the optical parts was performed. The plate was left undisturbed until reaching a stable baseline. After reaching a stable base line, 75 microliters of the fl-biotin solution were added to each well and mixed continuously for 2 mins using an automatic pipettor. In the course of the mixing, the binding curve was recorded in real time.\nMaterials: Unlabeled Streptavidine; KH2PO4 from Sigma-Aldrich ref. P5504; and PBS buffer. First, a […] KH2PO4 solution was prepared and its pH was adjusted to 8. Then 75 microliters of this solution were added to each well from a PGL Epic® coated plate prepared using PGL formulation of Example 4A. The alignment of the optical parts was performed and the plate was left undisturbed until a stable baseline was reached. […]",
  "data": [
    {"molecule": "O=C(CCCCCNC(=O)CCCC[C@@H]1SC[C@@H]2NC(=O)N[C@@H]21)NCCCCCNC(=S)Nc1ccc2c(c1)C(=O)OC21c2ccc(O)cc2Oc2cc(O)ccc21", "note": "[fl-biotin, Fluorescein-Biotin]", "values": [
      {"measurement": "binding of fl-biotin on immobilized SA", "result": "easily observed"}
    ]}
  ]
}
